Reference: US20020049151A1, “Therapeutic approaches to diseases by suppression of the NURR subfamily of nuclear transcription factors” (priority 2000, published 2002)

Columns and labels:
[1] = tested on: CRH mRNA; experiment: RT-PCR of CRH mRNA in primary human synoviocytes; type: cell-based; conditions: primary RA and PsA synoviocytes, 6 h; 10 ng/ml IL-1β, IL-6, TNF, 1 μM PGE2, MoCM; mean +/−SE
Text: To identify the origin of the cells that express CRH, the expression of CRH mRNA in isolated primary human synoviocyte cells was investigated. Synoviocytes are an important source and target cell for IL-1β, TNFα and PGE2 action within inflamed synovial tissue (Bucala et al., 1991). Moreover, these pro-inflammatory agents are important mediators in the pathogenesis of human synovial hyperplasia and cartilage destruction (MacNaul et aL., 1990). […] Representative examples of PCR products generated using synoviocytes maintained under normal conditions (Con), or exposed to 10 ng/ml IL-1β, IL-6, TNF, 1 μM PGE2, MoCM or 25 μM forskolin (FOR) for 6 h. Results were obtained from three separate experiments, using both RA and PsA cell lines. Values shown are the mean +/−SE. The symbol * indicates P<0.01 compared to control. PCR products generated were confirmed by Southern blot analysis using CDNA probes for human CRH and GAPDH.
The regulation of hypothalamic CRH gene expression by activation of adenylate cyclase/protein kinase A signaling pathway has previously been established (Guardiola-diaz et al., 1994). The ability of forskolin (FOR), an adenylate cyclase activating agent, was tested for stimulatory effects on CRH gene expression in primary synoviocytes. […] To determine regulatory signals of peripheral CRH expression the ability of pro-inflammatory agonists to regulate endogenous CRH MRNA was examined. […] Next, a comparison of the ability of individual pro-inflammatory mediators to induce CRH mRNA was performed. […] Levels of GAPDH mRNA remained relatively constant under all conditions tested (FIG. 1D).
Synovial tissue was treated for 4 h with 1 mg/ml collagenase (type I; Worthington Biochemical, Freehold, N.J.) in RPMI at 37° C. in 5% CO2. Dissociated cells were plated in RPMI supplemented with 10% fetal calf serum (GibcoBRL, Paisley, UK), penicillin (100 U/ml), streptomycin (100 U/ml) and fungizone (0.25 μg/ml). […] Twenty-four hours before transfection, 1×10^6 synoviocyte cells were plated in 25 cm^2 dishes and allowed to attach. […] Chloramphenicol acetyl transferase (CAT) levels were measured using a CAT ELISA (Boehringer Mannheim, Germany). Protein concentrations were determined by the Bradford assay (BioRad, Richmond, Calif.). […]

[2] = tested on: human CRH promoter; experiment: hCRH-CAT reporter, transient transfection in primary human synoviocytes; type: cell-based; conditions: -666/+111 hCRH-CAT; RA and PsA synoviocytes; 10 ng/ml IL-1β, IL-6, TNFα, 1 μM PGE2, MoCM; 12 h
Method: To determine whether inflammatory mediators are capable of regulating the expression of the human CRH promoter a reporter construct was generated by cloning the proximal promoter region (−666/+111) (SEQ ID NO: 143) of the human CRH gene into the promoterless pBL3-chloramphenicol acetyl transferase (CAT) plasmid to create hCRH-CAT. Transcriptional regulation of the hCRH promoter was measured by transient transfection in primary human synoviocytes. […] Three individual RA and PsA synoviocyte cell lines were transiently transfected with 3 μg -666 /+111 hCRH-CAT reporter plasmid to monitor CRH promoter activity, maintained under normal conditions (Con), or exposed to 10 ng/ml IL-1β, IL-6, TNFα1 μM PGE2, MoCM or 25 μM FOR for 12 h. […] Representative CAT levels produced by transfected cells are illustrated in FIG. 2B.
Synovial tissue was treated for 4 h with 1 mg/ml collagenase (type I; Worthington Biochemical, Freehold, N.J.) in RPMI at 37° C. in 5% CO2. Dissociated cells were plated in RPMI supplemented with 10% fetal calf serum (GibcoBRL, Paisley, UK), penicillin (100 U/ml), streptomycin (100 U/ml) and fungizone (0.25 μg/ml). […] Twenty-four hours before transfection, 1×10^6 synoviocyte cells were plated in 25 cm^2 dishes and allowed to attach. Endotoxin free-DNA ([…] CMV-β-galactosidase or 3 μg -666/+111 hCRH CAT (Murphy and Conneely, 1997) was added to 35 μl lipotaxi reagent (Stratagene, Cambridge, UK) in a volume of 900 μl RPMI (serum free) and incubated at room temperature for 30 min. RPMI (1.5 ml) was added to the transfection mixture, transferred onto the cells and incubated for 6 h at 37° C. in 5% CO2. An equal volume of media was added, and the cells were incubated overnight at 37° C. in 5% CO2. The DNA-lipotaxi containing media was replaced, and the cells were left untreated or treated with 10 ng/ml IL-1β, IL-6, TNFα, 1 μM PGE2 or MoCM and incubated for a further 24 h. Chloramphenicol acetyl transferase (CAT) levels were measured using a CAT ELISA (Boehringer Mannheim, Germany). Protein concentrations were determined by the Bradford assay (BioRad, Richmond, Calif.). For β-galactosidase assays cells were washed with cold phosphate buffered saline (PBS), fixed with cold 0.5% glutaraldehyde and washed twice with PBS before incubation with staining solution (1M MgCl2, 5M NaCL, 0.5M HEPES pH7.3, 30 mM potassium ferricyanide, 30 mM potassium ferrocyanide and 2% 5-bromo-4-chloro-3-indoyl-β-galactopyranoside) for 12 h at 37° C.

| Molecule | CRH mRNA expression, fold stimulation [1] | transcriptional activity of the hCRH promoter (CAT), fold [2] |
| --- | --- | --- |
| CCCCC[C@H](O)/C=C/[C@H]1[C@H](O)CC(=O)[C@@H]1C/C=C\CCCC(=O)O [PGE2, reference compound] | 3.85+/−1.5 fold | 28.8+/−1.7 fold |
| IL-1β: pro-inflammatory cytokine | 2.3+/−1.0 fold | 17.1+/−3.1 fold |
| IL-6: pro-inflammatory cytokine | 1.5+/−1.2 fold | 3.2+/−1.9 fold |
| TNFα | 3.6+/−2.0 fold | 15.6+/−1.9 fold |
